Experiment: xn = mol fraction of the nth substance listed
Conditions: Liquid; for mass density: Vibrating tube method

CCCO [propan-1-ol] + O
viscosity [mPa·s], Capillary tube (Ostwald / Ubbelohde) method
Conditions | x1 = 0.1 | x1 = 0.2 | x1 = 0.3 | x1 = 0.4 | x1 = 0.6 | x1 = 0.8 | x1 = 1
523.2 K, 20000 kPa | 0.131 | 0.129 | 0.122 | 0.121 | 0.117 | 0.114 | 0.115
523.2 K, 30000 kPa | 0.138 | 0.139 | 0.134 | 0.134 | 0.132 | 0.13 | 0.134
523.2 K, 40000 kPa | 0.138 | 0.146 | 0.145 | 0.146 | 0.146 | 0.146 | 0.15
573.2 K, 20000 kPa | 0.088 | 0.082 | 0.076 | 0.073 | 0.07 | 0.071 | 0.073
573.2 K, 30000 kPa | 0.092 | 0.09 | 0.085 | 0.084 | 0.082 | 0.083 | 0.085
573.2 K, 40000 kPa | 0.098 | 0.098 | 0.096 | 0.094 | 0.095 | 0.097 | 0.098
618.2 K, 20000 kPa | 0.056 | 0.042 | 0.04 | 0.042 | 0.047 | 0.052 | 0.057
618.2 K, 30000 kPa | 0.077 | 0.07 | 0.066 | 0.065 | 0.066 | 0.07 | 0.073
618.2 K, 40000 kPa | 0.086 | 0.082 | 0.079 | 0.079 | 0.08 | 0.084 | 0.087

mass density [kg/m3]
Conditions | x1 = 0.1 | x1 = 0.2 | x1 = 0.3 | x1 = 0.4 | x1 = 0.6 | x1 = 0.8 | x1 = 1
523.2 K, 20000 kPa | 733.5 | 682.3 | 648 | 624.3 | 596 | 582.1 | 575.3
523.2 K, 30000 kPa | 749.8 | 702.6 | 672.3 | 651 | 626.2 | 613.3 | 606.8
523.2 K, 40000 kPa | 761.7 | 718.6 | 689.7 | 670.3 | 647.5 | 635.6 | 629.3
573.2 K, 20000 kPa | 637.8 | 576.7 | 538 | 513.7 | 492.5 | 489.6 | 494.3
573.2 K, 30000 kPa | 664.2 | 614.7 | 583 | 564.2 | 545.3 | 540.2 | 540.6
573.2 K, 40000 kPa | 685.8 | 640.9 | 613.2 | 596.3 | 578.8 | 572.6 | 572.1
618.2 K, 20000 kPa | 430.7 | 324.4 | 311.8 | 325.6 | 360.4 | 393.7 | 419.4
618.2 K, 30000 kPa | 557.7 | 504.6 | 479.5 | 469.8 | 469.3 | 480.8 | 491.7
618.2 K, 40000 kPa | 603.6 | 561.4 | 539.6 | 529 | 523.2 | 528 | 534.1

O [water] + CCCO
viscosity [mPa·s], Capillary tube (Ostwald / Ubbelohde) method, x2 = 0
Conditions | 523.2 K | 573.2 K | 618.2 K
20000 kPa | 0.11 | 0.09 | 0.072
30000 kPa | 0.113 | 0.093 | 0.077
40000 kPa | 0.115 | 0.096 | 0.081

mass density [kg/m3], x2 = 0
Conditions | 523.2 K | 573.2 K | 618.2 K
20000 kPa | 816.1 | 734.8 | 619.7
30000 kPa | 825.5 | 750.7 | 656.9
40000 kPa | 834.3 | 764.4 | 682.3

O [water] + CCO
viscosity [mPa·s], Capillary tube (Ostwald / Ubbelohde) method, x2 = 0
Conditions | 523.2 K | 573.2 K | 618.2 K
20000 kPa | 0.11 | 0.09 | 0.072
30000 kPa | 0.113 | 0.093 | 0.077
40000 kPa | 0.115 | 0.096 | 0.081

mass density [kg/m3], x2 = 0
Conditions | 523.2 K | 573.2 K | 618.2 K
20000 kPa | 816.1 | 734.8 | 619.7
30000 kPa | 825.5 | 750.7 | 656.9
40000 kPa | 834.3 | 764.3 | 682.3

O [water] + CO
viscosity [mPa·s], Pressure drop in straight capillary, x2 = 0
Conditions | 523.2 K | 573.2 K | 618.2 K
20000 kPa | 0.11 | 0.09 | 0.072
30000 kPa | 0.113 | 0.093 | 0.077
40000 kPa | 0.115 | 0.096 | 0.081

mass density [kg/m3], x2 = 0
Conditions | 523.2 K | 573.2 K | 618.2 K
20000 kPa | 816.1 | 734.8 | 619.7
30000 kPa | 825.5 | 750.7 | 656.9
40000 kPa | 834.3 | 764.4 | 682.3

— the NIST ThermoML archive (doi:10.1016/j.fluid.2017.09.005)
